This is an account of results in US9067926B2, “Fluoromethyl-5,6-dihydro-4H-[1,3]OXAZINES” (F. Hoffmann-La Roche AG, priority 2012, dated 2015).

In this experiment the target is T1, BACE1 (Homo sapiens, UniProt P56817).
T1 construct: endogenous in cells; host or cells: HEK293 APP cells
Nature of the experiment: Cellular Aβ-lowering assay (Abeta 40 AlphaLISA). Format: cell-based. The note with it: HEK293 APP cells, 18-20 hrs incubation, Aβ 40 in culture supernatant; read-out: BACE1 cell act. Aβ40 IC50. How it is done:
Cellular Aβ-Lowering Assay:
The Abeta 40 AlphaLISA Assay can be used. The HEK293 APP cells were seeded in 96 well Microtiter plates in cell culture medium (Iscove's, plus 10% (vv) fetal bovine serum, penicillinstreptomycin) to about 80% confluency and the compounds were added at a 3× concentration in 13 volume of culture medium (final DMSO concentration was kept at 1% vv). After 18-20 hrs incubation at 37° C. and 5% CO2 in a humidified incubator, the culture supernatants were harvested for the determination of Aβ 40 concentrations using Perkin-Elmer Human Amyloid beta 1-40 (high specificity) Kit (Cat# AL275C).
Levels of Aβ 40 in the culture supernatants were calculated as percentage of maximum signal (cells treated with 1% DMSO without inhibitor). The IC50 values were calculated using the Excel XLfit software.
A general note: Alpha assays give light when donor and acceptor beads are brought close together.

T1 sequence (P56817 46-501): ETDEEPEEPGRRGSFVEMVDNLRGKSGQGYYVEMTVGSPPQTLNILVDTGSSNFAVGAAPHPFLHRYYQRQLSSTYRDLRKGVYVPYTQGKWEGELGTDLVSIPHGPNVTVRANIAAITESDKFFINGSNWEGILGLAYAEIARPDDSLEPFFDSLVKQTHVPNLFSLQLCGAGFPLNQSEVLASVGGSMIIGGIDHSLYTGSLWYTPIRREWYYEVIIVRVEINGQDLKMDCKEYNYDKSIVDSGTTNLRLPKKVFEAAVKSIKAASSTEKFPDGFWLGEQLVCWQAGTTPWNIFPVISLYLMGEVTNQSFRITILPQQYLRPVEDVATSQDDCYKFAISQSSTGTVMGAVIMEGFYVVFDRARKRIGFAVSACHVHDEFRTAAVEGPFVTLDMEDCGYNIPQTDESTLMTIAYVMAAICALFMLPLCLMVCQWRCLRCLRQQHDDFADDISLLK

In the case of `C[C@@]1(c2cc(NC(=O)c3cnc(OCC(F)(F)F)cn3)ccc2F)C[C@@H](C(F)(F)F)OC(N)=N1` [Example 7, N-(3-((4S,6S)-2-amino-4-methyl-6-(trifluoromethyl)-5,6-dihydro-4H-1,3-oxazin-4-yl)-4-fluorophenyl)-5-(2,2,2-trifluoroethoxyl)pyrazine-2-carboxamide], the IC50 was found to be 15 nM. In the case of `N#Cc1ccc(C(=O)Nc2ccc(F)c([C@]3(C(F)F)C[C@@H](C(F)(F)F)OC(N)=N3)c2)nc1` [Example 49, N-(3-((4S,6S)-2-Amino-4-(difluoromethyl)-6-(trifluoromethyl)-5,6-dihydro-4H-1,3-oxazin-4-yl)-4-fluorophenyl)-5-cyanopicolinamide] it was 82 nM; in that of `Cc1cc(C#N)cnc1C(=O)Nc1ccc(F)c([C@]2(C)C[C@@H](C(F)(F)F)OC(N)=N2)c1` [Example 12, N-(3-((4S,6S)-2-Amino-4-methyl-6-(trifluoromethyl)-5,6-dihydro-4H-1,3-oxazin-4-yl)-4-fluorophenyl)-5-cyano-3-methylpicolinamide], 3 nM. In the case of `C[C@@]1(c2cc(NC(=O)c3cnc(OCC(F)F)cn3)ccc2F)C[C@@H](C(F)(F)F)OC(N)=N1` [Example 6, N-(3-((4S,6S)-2-amino-4-methyl-6-(trifluoromethyl)-5,6-dihydro-4H-1,3-oxazin-4-yl)-4-fluorophenyl)-5-(2,2-difluoroethoxyl)pyrazine-2-carboxamide] it was 24 nM. In the case of `N#Cc1cnc(C(=O)Nc2ccc(F)c([C@]3(CF)C[C@@H](C(F)(F)F)OC(N)=N3)c2)c(Cl)c1` [Example 28, N-(3-((4S,6S)-2-Amino-4-(fluoromethyl)-6-(trifluoromethyl)-5,6-dihydro-4H-1,3-oxazin-4-yl)-4-fluorophenyl)-3-chloro-5-cyanopicolinamide] it was 11 nM.

Consider `C[C@@]1(c2cc(NC(=O)c3nn(C(F)F)cc3Cl)ccc2F)C[C@@H](C(F)(F)F)OC(N)=N1` [Example 26, N-(3-((4S,6S)-2-Amino-4-methyl-6-(trifluoromethyl)-5,6-dihydro-4H-1,3-oxazin-4-yl)-4-fluorophenyl)-4-chloro-1-(difluoromethyl)-1H-pyrazole-3-carboxamide], for which the IC50 came out at 1 nM.

With `NC1=N[C@](CF)(c2cc(NC(=O)c3ccc(Cl)cn3)ccc2F)C[C@@H](C(F)(F)F)O1` [Example 4, N-(3-((4S,6S)-2-amino-4-(fluoromethyl)-6-(trifluoromethyl)-5,6-dihydro-4H-1,3-oxazin-4-yl)-4-fluorophenyl)-5-chloropicolinamide], the IC50 came to 22 nM. The result for `C[C@@]1(c2cc(NC(=O)c3ccc(Cl)cn3)ccc2F)C[C@H](C(F)(F)F)OC(N)=N1` [Example 9, N-(3-((4S,6R)-2-Amino-4-methyl-6-(trifluoromethyl)-5,6-dihydro-4H-1,3-oxazin-4-yl)-4-fluorophenyl)-5-chloropicolinamide] reads 710 nM. The result for `NC1=N[C@](CF)(c2cc(NC(=O)c3cnc(OCC(F)F)cn3)ccc2F)C[C@@H](C(F)(F)F)O1` [Example 40, N-(3-((4S,6S)-2-Amino-4-(fluoromethyl)-6-(trifluoromethyl)-5,6-dihydro-4H-1,3-oxazin-4-yl)-4-fluorophenyl)-5-(2,2-difluoroethoxyl)pyrazine-2-carboxamide] reads 29 nM; that for `CC#CCOc1cnc(C(=O)Nc2ccc(F)c([C@]3(CF)C[C@@H](C(F)(F)F)OC(N)=N3)c2)cn1` [Example 38, N-(3-((4S,6S)-2-Amino-4-(fluoromethyl)-6-(trifluoromethyl)-5,6-dihydro-4H-1,3-oxazin-4-yl)-4-fluorophenyl)-5-(but-2-ynyloxy)pyrazine-2-carboxamide], 0.6 nM; that for `C[C@@]1(c2cc(NC(=O)c3ccc(OCC(F)(F)F)cn3)ccc2F)C[C@@H](C(F)(F)F)OC(N)=N1` [Example 18, N-(3-((4S,6S)-2-Amino-4-methyl-6-(trifluoromethyl)-5,6-dihydro-4H-1,3-oxazin-4-yl)-4-fluorophenyl)-5-(2,2,2-trifluoroethoxy)picolinamide], 8 nM. Take `C[C@@]1(c2cc(NC(=O)c3cnc(CF)cn3)ccc2F)C[C@@H](C(F)(F)F)OC(N)=N1` [Example 19, N-(3-((4S,6S)-2-Amino-4-methyl-6-(trifluoromethyl)-5,6-dihydro-4H-1,3-oxazin-4-yl)-4-fluorophenyl)-5-(fluoromethyl)pyrazine-2-carboxamide]: the IC50 stood at 6 nM. Consider `C[C@@]1(c2cc(NC(=O)c3cnc(OC(F)F)cn3)ccc2F)C[C@@H](C(F)(F)F)OC(N)=N1` [Example 24, N-(3-((4S,6S)-2-Amino-4-methyl-6-(trifluoromethyl)-5,6-dihydro-4H-1,3-oxazin-4-yl)-4-fluorophenyl)-5-(difluoromethoxy)pyrazine-2-carboxamide], for which the IC50 stood at 3 nM.

Regarding `NC1=N[C@](CF)(c2cc(NC(=O)c3cnc(OCF)cn3)ccc2F)C[C@@H](C(F)(F)F)O1` [Example 43, N-(3-((4S,6S)-2-Amino-4-(fluoromethyl)-6-(trifluoromethyl)-5,6-dihydro-4H-1,3-oxazin-4-yl)-4-fluorophenyl)-5-(fluoromethoxy)pyrazine-2-carboxamide], the IC50 stood at 3 nM.

For the compound `C[C@@]1(c2cc(NC(=O)c3ccc(C(F)F)cn3)ccc2F)C[C@@H](C(F)(F)F)OC(N)=N1` [Example 17, N-(3-((4S,6S)-2-Amino-4-methyl-6-(trifluoromethyl)-5,6-dihydro-4H-1,3-oxazin-4-yl)-4-fluorophenyl)-5-(difluoromethyl)picolinamide], the IC50 is 2 nM.

As for `C[C@@]1(c2cc(NC(=O)c3ncc(Cl)cc3Cl)ccc2F)C[C@@H](C(F)(F)F)OC(N)=N1` [Example 10, N-(3-((4S,6S)-2-Amino-4-methyl-6-(trifluoromethyl)-5,6-dihydro-4H-1,3-oxazin-4-yl)-4-fluorophenyl)-3,5-chloropicolinamide], the IC50 was determined as 6 nM. In the case of `NC1=N[C@](CF)(c2cc(NC(=O)c3cnc(OCC(F)(F)F)cn3)ccc2F)C[C@@H](C(F)(F)F)O1` [Example 41, N-(3-((4S,6S)-2-Amino-4-(fluoromethyl)-6-(trifluoromethyl)-5,6-dihydro-4H-1,3-oxazin-4-yl)-4-fluorophenyl)-5-(2,2,2-trifluoroethoxyl)pyrazine-2-carboxamide] it was 17 nM; in that of `COc1cnc(C(=O)Nc2ccc(F)c([C@]3(C)C[C@@H](C(F)(F)F)OC(N)=N3)c2)cn1` [Example 5, N-(3-((4S,6S)-2-amino-4-methyl-6-(trifluoromethyl)-5,6-dihydro-4H-1,3-oxazin-4-yl)-4-fluorophenyl)-5-methoxypyrazine-2-carboxamide], 5 nM. In the case of `NC1=N[C@](CF)(c2cc(NC(=O)c3cnc(OC(F)F)cn3)ccc2F)C[C@@H](C(F)(F)F)O1` [Example 39, N-(3-((4S,6S)-2-Amino-4-(fluoromethyl)-6-(trifluoromethyl)-5,6-dihydro-4H-1,3-oxazin-4-yl)-4-fluorophenyl)-5-(difluoromethoxy)pyrazine-2-carboxamide] it was 0.4 nM; in that of `NC1=N[C@](CF)(c2cc(NC(=O)c3cnc(CF)cn3)ccc2F)C[C@@H](C(F)(F)F)O1` [Example 37, N-(3-((4S,6S)-2-Amino-4-(fluoromethyl)-6-(trifluoromethyl)-5,6-dihydro-4H-1,3-oxazin-4-yl)-4-fluorophenyl)-5-(fluoromethyl)ypyrazine-2-carboxamide], 53 nM; in that of `NC1=N[C@](CF)(c2cc(NC(=O)c3coc(CF)n3)ccc2F)C[C@@H](C(F)(F)F)O1` [Example 47, N-(3-((4S,6S)-2-Amino-4-(fluoromethyl)-6-(trifluoromethyl)-5,6-dihydro-4H-1,3-oxazin-4-yl)-4-fluorophenyl)-2-(fluoromethyl)oxazole-4-carboxamide], 1 nM. In the case of `N#Cc1ccc(C(=O)Nc2ccc(F)c([C@]3(C(F)F)C[C@H](C(F)(F)F)OC(N)=N3)c2)nc1` [Example 48, N-(3-((4S,6R)-2-Amino-4-(difluoromethyl)-6-(trifluoromethyl)-5,6-dihydro-4H-1,3-oxazin-4-yl)-4-fluorophenyl)-5-cyanopicolinamide] it was 520 nM; in that of `C[C@@]1(c2cc(NC(=O)c3cnc(OCF)cn3)ccc2F)C[C@@H](C(F)(F)F)OC(N)=N1` [Example 23, N-(3-((4S,6S)-2-Amino-4-methyl-6-(trifluoromethyl)-5,6-dihydro-4H-1,3-oxazin-4-yl)-4-fluorophenyl)-5-(fluoromethoxy)pyrazine-2-carboxamide], 1 nM. For the compound `Cc1cnc(C(=O)Nc2ccc(F)c([C@]3(C)C[C@@H](C(F)(F)F)OC(N)=N3)c2)cn1` [Example 21, N-(3-((4S,6S)-2-Amino-4-methyl-6-(trifluoromethyl)-5,6-dihydro-4H-1,3-oxazin-4-yl)-4-fluorophenyl)-5-methylpyrazine-2-carboxamide], the IC50 worked out at 59 nM. In the case of `C[C@@]1(c2cc(NC(=O)c3cnc(C(F)F)cn3)ccc2F)C[C@@H](C(F)(F)F)OC(N)=N1` [Example 20, N-(3-((4S,6S)-2-Amino-4-methyl-6-(trifluoromethyl)-5,6-dihydro-4H-1,3-oxazin-4-yl)-4-fluorophenyl)-5-(difluoromethyl)pyrazine-2-carboxamide] it was 5 nM.

For the compound `Cc1cc(C#N)cnc1C(=O)Nc1ccc(F)c([C@]2(CF)C[C@@H](C(F)(F)F)OC(N)=N2)c1` [Example 27, N-(3-((4S,6S)-2-Amino-4-(fluoromethyl)-6-(trifluoromethyl)-5,6-dihydro-4H-1,3-oxazin-4-yl)-4-fluorophenyl)-5-cyano-3-methylpicolinamide], the IC50 is 2 nM.

By IC50 is commonly meant the concentration at which inhibition is half-maximal.
